Results on five compounds are retold here after ChEMBL document CHEMBL1201862, “PubChem BioAssay data set” (2004).

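48-hour exposure; five concentrations; linearly interpolated endpoints. The concentration for 50% growth inhibition is given as GI50.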 Active and inactive are the calls of the source. Cut-off read from the data, not from the text of the source: active = GI50 up to about 1.1 µM and inactive = higher.

Among the test systems are 786-0; ACHN; COLO 205; EKVX; HCT-116; LOX IMVI; Malme-3M; NCI-H23; OVCAR-3; OVCAR-4; SK-MEL-2; SK-OV-3; SN12C; SNB-75; SR; UACC-257; UO-31; CAKI-1.
What all share (assay): growth of human tumour cells (NCI), 48 h

Regarding `N#CCN1C(=O)c2cccc3cc([N+](=O)[O-])cc(c23)C1=O`, the GI50 is 60.3 µM (inactive) in the test on 786-0; 42.5 µM (inactive) in the test with ACHN; 35.3 µM (inactive) with COLO 205; 74.8 µM (inactive) with EKVX; 32.2 µM (inactive) in the test with HCT-116; 21.6 µM (inactive) in the test on LOX IMVI. For the same compound, the GI50 in the test on Malme-3M is 33.6 µM (inactive); in the test with NCI-H23, 29.5 µM (inactive); in the test on OVCAR-3, 29.4 µM (inactive); in the test on OVCAR-4 it was 45.4 µM (inactive); in the test on SK-MEL-2, 0.745 µM (active); in the test on SK-OV-3 it was > 100 µM (inactive). Besides, the GI50 is 29.4 µM (inactive) in the test on SN12C; 38 µM (inactive) with SNB-75; 5.69 µM (inactive) in the test with SR; 24.3 µM (inactive) with UACC-257; 23.4 µM (inactive) in the test with UO-31.
Turning to `Cc1ccc(S(=O)(=O)NCCCN(CCCNS(=O)(=O)c2ccc(C)cc2)S(=O)(=O)c2ccc(C)cc2)cc1`, the GI50 with 786-0, in the test with ACHN, in the test on COLO 205, in the test on HCT-116, with LOX IMVI and with Malme-3M was > 100 µM (inactive) each time. For the same compound, the GI50 is > 100 µM (inactive) with NCI-H23; > 100 µM (inactive) with OVCAR-3; > 100 µM (inactive) in the test on SK-OV-3; > 100 µM (inactive) in the test on SN12C; > 100 µM (inactive) in the test with SNB-75; 69.7 µM (inactive) in the test with SR. The GI50 in the test on UACC-257 and with UO-31 was > 100 µM (inactive) throughout.
For the compound `N#CC1(Cc2ccc(N)cc2)c2ccccc2C=CN1C(=O)c1ccccc1` (stereo unspecified), the GI50 with 786-0 was 50.2 µM (inactive); with ACHN, 31.7 µM (inactive); in the test on COLO 205, 27.3 µM (inactive); with EKVX, 38.7 µM (inactive); in the test on HCT-116, 54 µM (inactive); in the test with LOX IMVI, 51.6 µM (inactive). Moreover, the GI50 with Malme-3M was 24.4 µM (inactive); in the test with NCI-H23, 47.1 µM (inactive); in the test on OVCAR-3, 43.9 µM (inactive); with SK-MEL-2 it was 9.29 µM (inactive); with SK-OV-3, 66.4 µM (inactive); with SN12C, 41.2 µM (inactive). Also, the GI50 was 29.3 µM (inactive) in the test on SNB-75, 24.8 µM (inactive) in the test with SR, 39.7 µM (inactive) in the test on UACC-257 and 19.8 µM (inactive) in the test with UO-31.
Take `O=C1C(=O)N(c2ccc(Cl)cc2)C(=O)C(=O)C1c1nc2ccccc2o1`: the GI50 with 786-0, in the test on ACHN, in the test with CAKI-1, with COLO 205, in the test on EKVX and in the test with HCT-116 was > 100 µM (inactive) throughout. For the same compound, the GI50 in the test with LOX IMVI, in the test with Malme-3M, in the test with NCI-H23, in the test on OVCAR-3, in the test on OVCAR-4 and in the test with SK-MEL-2 was > 100 µM (inactive) in each case. Moreover, the GI50 in the test on SK-OV-3, in the test with SN12C, in the test with SNB-75, with UACC-257 and in the test with UO-31 was > 100 µM (inactive) each time.
With `CN(C)/C=N/c1nc2c(ncn2C2OC(CO)C(O)C2O)c(=O)[nH]1` (stereo unspecified), the GI50 in the test with 786-0, in the test with ACHN, with CAKI-1, with COLO 205, in the test with EKVX and in the test on HCT-116 was > 100 µM (inactive) each time. The GI50 in the test with Malme-3M, in the test on NCI-H23, in the test with OVCAR-3, with OVCAR-4, in the test on SK-MEL-2 and in the test with SK-OV-3 was > 100 µM (inactive) throughout. Besides, the GI50 in the test with SN12C, in the test with SNB-75, in the test with SR, with UACC-257 and in the test with UO-31 was > 100 µM (inactive) in each case.
